In patent publication US20210052701A1, “Methods of Treating Vascular Leakage Using CXCL12 Peptides” (The Medical College of Wisconsin, Inc., priority 2018, published 2021):
Entries after “also recorded” stand apart in the source; their conditions may differ. Where two headings read alike, the source gives them in different places. Values belong to the molecule of their own block, whether it stands above or below them.

Legend:
CXCR4 = target: T1, CXCR4 (Homo sapiens, UniProt P61073); test: Presto-Tango β-arrestin 2 recruitment assay for CXCR4; type: cell-based
T1 construct: host or cells: HTLA cells (HEK293 line stably expressing a tTA-dependent luciferase reporter and a β-arrestin2-TEV fusion gene)
Method: (§1) FIGS. 6A-6F show Presto-Tango β-arrestin 2 recruitment assays for CXCR4 (A-C) and ACKR3 (D-F). RLU %: % of the luminescence signal for 1 μM CXCL12α. N=9 for CXCL12a and n=3 for all other proteins.
(§2) Presto-Tango β-arrestin 2 recruitment assay—The PRESTO-Tango (parallel receptorome expression and screening via transcriptional out-put, with transcriptional activation following arrestin translocation) assay was performed as recently described. The Tango plasmids were a gift from Dr. Bryan Roth (all from Addgene). HTLA cells (2.5×10^5/well) were seeded in a 6-well plate and transfected with 1.5 μg of the Tango plasmids using Lipofectamine 3000 (ThermoScientific). The following day, transfected HTLA cells (1×10^5 cells/well) were plated onto Poly-L-Lysine pre-coated 96-well micro-plates and allowed to attach to the plate surface for at least 4 hours prior to treatment. Proteins used for treatment were prepared in twice the final concentration in culture media, added at a 1:1 vol/vol ratio and incubated overnight at 37° C., 5% CO2 in a humidified environment. The following morning, media was removed from cell culture plates and replaced with a 100 μL 1:5 mixture of Bright-Glo (Promega) and 1×HBSS, 20 mM HEPES solution. Plates were then incubated at room temperature before measuring luminescence on a Biotek Synergy II plate reader.

ACKR3 = target: T2, ACKR3 (Homo sapiens, UniProt P25106); test: Presto-Tango β-arrestin 2 recruitment assay for ACKR3; type: cell-based
T2 construct: host or cells: HTLA cells (HEK293 line stably expressing a tTA-dependent luciferase reporter and a β-arrestin2-TEV fusion gene)
Method: as §1, §2

hPPAEC [1] = test: Effects of CXCR4 agonists / CXCL12 variants on thrombin-induced impairment of hPPAEC monolayer permeability; type: cell-based, human
Method: FIGS. 3A-3D show effects of CXCL12 and ubiquitin on thrombin-induced impairment of hPPAEC monolayer permeability. hPPAEC were grown to a confluent monolayer on collagen-coated permeable membranes. (A) hPPAEC were pre-treated with vehicle, 100 nM of CXCL12 or ubiquitin for 10 minutes, as indicated, and then exposed to thrombin (50 nM), followed by the addition of FITC-dextran. Vehicle: no thrombin. Endothelial permeability was assessed by measuring the amount of FITC-dextran that permeated through the cell monolayer. No cells: 100% permeability (open circles). RFU: Relative fluorescence units. N=3 in quadruplicate. *: p<0.05 vs. vehicle/thrombin. (B-D) hPPAEC were exposed to 35 nM of thrombin or vehicle. After 10 min, thrombin-exposed cells were treated with vehicle, CXCL12 (50 nM) and/or AMD3100 (10 μM) (B), with vehicle, ubiquitin (50 nM) and/or AMD3100 (10 μM) (C) or with various concentrations of ubiquitin (D) followed by the addition of FITC-dextran. The experimental conditions are indicated. Endothelial permeability was assessed by measuring the amount of FITC-dextran that permeated through the cell monolayer. RFU: Relative fluorescence units. N=3 in quadruplicate. *: p<0.05 vs. thrombin/vehicle (2-way ANOVA/Bonferroni's multiple comparison post hoc test).
(§3) FIGS. 7A-7D show dose-dependent effects of CXCL12α/β, CXCL12 (3-68) and CXCL12 mutants K27A/R41A/R47A, R47E and S-S4V on thrombin-induced impairment of hPPAEC monolayer permeability. hPPAEC cells were grown to a confluent monolayer on collagen-coated permeable membranes. hPPAEC were then exposed to 35 nM of thrombin. After 10 min, thrombin-exposed cells were treated with vehicle or 50 nM (A), 5 nM (B), 0.5 nM (C) or 0.05 nM (D) of the various proteins, as indicated. In (D) 5 nM CXCL12a was used as a positive control. N=3 in quadruplicate.
as §3, with “8A-8D” for “7A-7D”, “CXCL12α, CXCL121” for “CXCL12α/β, CXCL12 (3-68)”, “CXCL122” for “CXCL12 mutants K27A/R41A/R47A, R47E and S-S4V”, “CXCL12α” for “CXCL12a”
FIGS. 9A-9B show inhibition of thrombin-induced hyper-permeability of hPPAEC by CXCL12/CXCL12 variants. % inhibition: % inhibition of thrombin-induced hyperpermeability. Data from FIGS. 7 and 8 at t=255 min. N=3 in quadruplicate. *: p<0.05 vs. CXCL12a (2-way ANOVA/Bonferroni's multiple comparison post hoc test).
(§4) In vitro vascular permeability assays—Permeability assays were obtained from Millipore (ECM642) and performed as per manufacturer's instructions. In brief, 96-well collagen-coated permeability assay plates were pre-hydrated for 15 min, 5×10^5 cells were seeded on each well and grown to a confluent monolayer for 48 hours. Fluorescein isothiocyanate (FITC)-dextran (20 μg/mL) was then added on top of the monolayer and the amount of FITC-dextran that permeated through the monolayer was quantified by measuring fluorescence in a Synergy 2 Multi-mode Microplate Reader (BioTek, Winooski, Vt.) at various time points over a 255 min time period.

hPPAEC [2] = test: Thrombin dose-response in hPPAEC monolayer permeability assay; type: cell-based, human; conditions: for EC50: read-out: EC50 for thrombin-induced impairment of hPPAEC barrier function; for maximal impairment of endothelial barrier function: 100% = permeability in the absence of hPPAEC
Method: FIGS. 2A-2B show impairment of hPPAEC monolayer permeability by thrombin. (A) hPPAEC were grown to a confluent monolayer on collagen-coated permeable membranes and then exposed to different concentration of thrombin for 10 min, followed by the addition of FITC-dextran. Endothelial permeability was assessed by measuring the amount of FITC-dextran that permeated through the cell monolayer. No cells: 100% permeability. RFU: Relative fluorescence units. N=3 in quadruplicate. (B) Dose-response curves for thrombin-induced permeability, data from A. 100% permeability=permeability in the absence of hPPAEC. Open squares: Permeability at t=55 min. Light grey squares: Permeability at t=135 min. Dark grey squares: Permeability at t=255 min. Dose-response curves were generated using nonlinear regression analyses.
as §4
Data analysis—Data are expressed as mean±SEM from n independent experiments that were performed on different days. Data were analyzed with unpaired Student's t test, one- or two-way analyses of variance with Bonferroni's multiple comparison post hoc test, as appropriate. Dose-response curves were generated using nonlinear regression analyses. All analyses were performed with the GraphPad-Prism 7 software. A two-tailed P<0.05 was considered significant.

HULEC-5a = test: Thrombin dose-response in HULEC-5a monolayer permeability assay; type: cell-based, human; conditions: read-out: EC50 for thrombin-induced impairment of HULEC-5a barrier function
Method: FIGS. 4A-4D show effects of CXCL12 and ubiquitin on thrombin-induced impairment of HULEC-5a monolayer permeability. (A) HULEC-5a were grown to a confluent monolayer on collagen-coated permeable membranes and then exposed to different concentration of thrombin for 10 min, followed by the addition of FITC-dextran. Endothelial permeability was assessed by measuring the amount of FITC-dextran that permeated through the cell monolayer. No cells: 100% permeability. RFU: Relative fluorescence units. N=3 in quadruplicate. (B) Dose-response curves for thrombin-induced permeability, data from A. 100% permeability=permeability in the absence of HULEC-5a. Open squares: Permeability at t=55 min. Light grey squares: Permeability at t=135 min. Dark grey squares: Permeability at t=255 min. (C/D) HULEC-5a were grown to a confluent monolayer on collagen-coated permeable membranes and then exposed to 50 nM of thrombin or vehicle. After 10 min, thrombin-exposed cells were treated with vehicle, CXCL12 (50 nM) (C) or ubiquitin (50 nM) (D), followed by the addition of FITC-dextran. The experimental conditions are indicated. Endothelial permeability was assessed by measuring the amount of FITC-dextran that permeated through the cell monolayer. RFU: Relative fluorescence units. N=3 in quadruplicate. *: p<0.05 vs. thrombin/vehicle (2-way ANOVA/Bonferroni's multiple comparison post hoc test).
as §4

[3] = test system: animal model of acute respiratory distress syndrome (ARDS); test: Animal model of ARDS: lung ischemia reperfusion injury plus hemorrhage (P:F ratio, lung injury score); type: in vivo, Sprague-Dawley rats; conditions: 0.14 μmol/kg i.v. within 10 min after reperfusion; until t=300 min
Method: Animals underwent 70 min of […] lung ischemia for 70 min plus hemorrhage to a MAP of 40 mmHg for the last 30 min of ischemia, followed by fluid resuscitation to a MAP of 60 mmHg until t=300 min. Arrow: drug injection. Dashed lines indicate the P:F ratio (mmHg) threshold values for the diagnosis of mild, moderate and severe ARDS. Vehicle: n=5. CXCL12: n=3. CXCL12: n=4. CXCL12-LM: n=3, CXCL12-LD: n=4. CXCL12 K27A/R41A/R47A: n=3. LI+HEM: lung ischemia reperfusion injury plus hemorrhage. Data are mean±SEM. *: p<0.05 vs. vehicle (2-way ANOVA/Dunnett's multiple comparisons test).
FIGS. 12A-12C show lung histology after treatment with CXCL12 and engineered CXCR4 agonists A. Lung specimens were placed in formalin fixative solution and were then embedded in paraffin wax, sliced into 5 μm sections and stained with H&E. Representative images from H&E stained lung sections from animals after vehicle (left) and CXCL12 ([…], right treatment. B/C. Lung injury scores (B. uninjured (left) lung; C. injured (right) lung). Data are median±interquartile ranges. Data were analyzed with the Kruskal Wallis test with Dunn's multiple comparisons test. The level of statistical significance (p) vs. ctrl. (vehicle treatment) indicated.
We tested therapeutic efficacy of wild-type CXCL12, CXXL12-locked dimer (LD), CXCL12-locked monomer (LM) and the triple mutant CXCL12 K27A/R41A/R47A in an animal model of acute respiratory distress syndrome (ARDS) (FIG. 11). All drugs were injected in a dose of 0.14 μmol/kg. Male Sprague-Dawley rats were anesthetized, orotracheally intubated, instrumented with arterial/venous catheters, and mechanically ventilated (PEEP 2 mmHg, FiO2 1.0). After a right lateral thoracotomy, a suture was tied around the hilum of the right lung. Animals underwent 70 min of right lung ischemia plus hemorrhage to a mean arterial blood pressure (MAP) of 40 mmHg for the last 30 min of lung ischemia. At t=70 min, the suture was removed, animals were ventilated with FiO2 1.0, PEEP 5 mmHg and resuscitated with crystalloids to a MAP of 60 mmHg until t=300 min. Vehicle and drugs were injected i.v. within 10 min after reperfusion.
We further evaluated histomorphology of the lungs from animals treated with vehicle, wild-type CXCL12, CXCL12-LD and CXCXL12-LM utilizing a standardized lung injury score. Lung slides stained with hematoxylin and eosin were examined under a light microscope by 4 investigators blinded to the identity of the specimens. The lung injury score was assessed as previously described/. In brief each investigator rendered a score of 0 (no damage) to 4+(maximal damage) based on an injury grading scale composed of six criteria. The slides were assessed for the extent of alveolar congestion, hemorrhage and edema, as well as alveolar and vessel wall PMN infiltration and alveolar wall thickness. […] Lung injury scores of the uninjured and injured lungs from animals treated with vehicle, wild-type CXCL12, CXCL12-LD and CXCXL12-LM are shown in FIGS. […], respectively.

T1 sequence (P61073 whole entry, the tested form may be a part): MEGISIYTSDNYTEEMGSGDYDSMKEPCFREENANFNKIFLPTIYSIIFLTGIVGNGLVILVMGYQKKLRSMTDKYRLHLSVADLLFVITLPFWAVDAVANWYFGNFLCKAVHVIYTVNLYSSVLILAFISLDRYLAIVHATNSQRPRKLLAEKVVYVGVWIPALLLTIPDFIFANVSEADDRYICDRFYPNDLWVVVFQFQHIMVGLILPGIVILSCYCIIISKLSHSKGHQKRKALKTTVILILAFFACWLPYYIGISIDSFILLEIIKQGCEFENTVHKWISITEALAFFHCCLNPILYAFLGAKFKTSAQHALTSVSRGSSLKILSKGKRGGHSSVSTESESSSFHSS
T2 sequence (P25106 whole entry, the tested form may be a part): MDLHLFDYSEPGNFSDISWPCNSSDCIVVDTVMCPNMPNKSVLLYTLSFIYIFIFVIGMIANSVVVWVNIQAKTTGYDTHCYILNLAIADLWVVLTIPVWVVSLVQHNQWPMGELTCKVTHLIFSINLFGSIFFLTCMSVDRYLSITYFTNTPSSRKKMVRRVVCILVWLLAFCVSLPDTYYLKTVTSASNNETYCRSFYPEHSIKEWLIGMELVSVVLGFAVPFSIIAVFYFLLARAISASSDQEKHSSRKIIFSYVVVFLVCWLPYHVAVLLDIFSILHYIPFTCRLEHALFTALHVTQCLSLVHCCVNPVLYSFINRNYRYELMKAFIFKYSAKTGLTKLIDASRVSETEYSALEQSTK

Molecule: CXCL12 R47E: CXCL12 mutant which activates CXCR4 with reduced potency
- potency (EC50) to recruit β-arrestin 2 to CXCR4, compared with CXCL12α (CXCR4): significantly lower than the potency of CXCL12α
- ACKR3 activity (in words) (ACKR3): retains ACKR3 activity comparable to wild type proteins

- efficacy to recruit β-arrestin 2 to CXCR4 (CXCR4; top plateau, % of signal for 1 μM CXCL12α): lacked relevant CXCR4 activity
- efficacy for β-arrestin 2 recruitment to ACKR3 (ACKR3): significantly reduced
Molecule: CXCL12 (3-68): truncated CXCL12 (3-68), N-terminal truncated
- effect on thrombin-mediated impairment of hPPAEC barrier function (hPPAEC [1]; thrombin 35 nM, after 10 min 0.05-50 nM protein): did not attenuate thrombin-induced impairment of hPPAEC barrier function

- EC50 (hPPAEC [2]; after 55 min): 30 ± 2 nM
- EC50 (hPPAEC [2]; after 135 min): 33 ± 2 nM
- EC50 (hPPAEC [2]; after 255 min): 36 ± 2 nM
- EC50 (HULEC-5a; after 55 min): 64 ± 7 nM
- EC50 (HULEC-5a; after 135 min): 64 ± 6 nM
- EC50 (HULEC-5a; after 255 min): 57 ± 5 nM
Molecule: thrombin
- maximal impairment of endothelial barrier function (hPPAEC [2]; at 55 min): 49±3%
- maximal impairment of endothelial barrier function (hPPAEC [2]; at 135 min): 59±4%
- maximal impairment of endothelial barrier function (hPPAEC [2]; at 255 min): 72±4%
- time to reach plateau for the permeability-inducing effects (hPPAEC [2]; thrombin 20 nM): 55 min
- time to reach plateau for the permeability-inducing effects (hPPAEC [2]; thrombin 40 nM): 135 min
- time to reach plateau for the permeability-inducing effects (hPPAEC [2]; thrombin 50 nM): 255 min
- time to reach plateau for the permeability-inducing effects (hPPAEC [2]; thrombin 100 nM): 255 min

- EC50 (potency) for β-arrestin 2 recruitment to ACKR3 (ACKR3): retained high potency to activate ACKR3
B1: CXCL12 K27A/R41A/R47A: CXCL12 mutant with significantly reduced heparan sulfate proteoglycan binding properties (protein)
chain: KPVSLSYRCPCRFFESHVARANVKHLAILNTPNCALQIVAALKNNNAQVCIDPKLKWIQEYLEKALNK
modifications: ends and bridges not checked
- potency to attenuate thrombin-induced permeability of hPPAEC (in words) (hPPAEC [1]): same potency as wild type proteins and CXCL121
- potency (EC50) to recruit β-arrestin 2 to CXCR4, compared with CXCL12α (CXCR4): significantly lower than the potency of CXCL12α; also recorded: lowest potency to activate CXCR4
- development of ARDS (P:F ratio) [3]: indistinguishable from vehicle treated animals
